Measurements from patent publication US20180228743A1, “COMPOUNDS AND METHODS OF PROMOTING MYELINATION” (Case Western Reserve University, priority 2016, published 2018).
Where a name gives a salt, the structure may show the parent alone. Read-outs that look alike come from different tables or passages of the source.

Experiments:
EpiSC-derived OPCs [1] = assay: In vitro phenotypic screening of OPCs (MBP+ oligodendrocytes at 72 h); assay type: cell-based, mouse; settings: 72 h
EpiSC-derived OPCs [2] = assay: High-throughput screening of 3,000 bioactive small molecules for MBP+ oligodendrocyte formation from OPCs; assay type: cell-based, mouse; settings: 72 h; for % 0ligos: MBP+ oligodendrocytes; for fold induction at 2 µM: Mus musculus, read-out: fold-change in % MBP + oligodendrocytes
Excerpt: Plates were imaged on the Operetta High Content Imaging and Analysis system (PerkinElmer) and a set of 6 fields captured from each well resulting in an average of 1200 cells being scored per well. Analysis (PerkinElmer Harmony and Columbus software) began by identifying intact nuclei stained by DAPI; that is, those traced nuclei that were larger than 300 μm^2 in surface area. Each traced nucleus region was then expanded by 50% and cross-referenced with the […] (MBP) stain to identify oligodendrocyte nuclei, and from this the percentage of oligodendrocytes was calculated. In some experiments, the total process length of MBP+ oligodendrocytes was calculated as previously described.
EpiSC-derived OPCs were grown and expanded in poly-ornithine and laminin-coated flasks before harvesting for plating. Cells were dispensed in differentiation media supplemented with Noggin (R&D Systems; 100 ng/ml), Neurotrophin 3 (R&D Systems; 10 ng/ml), cAMP (Sigma; 50 μM), and IGF-1 (R&D Systems; 100 ng/ml)) using a Biotek EL406 Microplate Washer Dispenser (Biotek) equipped with 5 μL dispense cassette (Biotek), into poly-D-lysine/laminin (Sigma, L2020; 4 μg/ml)-coated sterile, 384-well, CellCarrier ultra plates (PerkinElmer), to a final density of 12,500 cells per well and allowed to attach for 45 min before addition of drug. A 3 mM stock of bioactive compound library in dimethylsulphoxide (DMSO) were prepared in an Abgene storage 384-well plate (ThermoFisher Scientific; AB1055). These were added to assay plates using a 50 nL solid pin tool attached to Janus automated workstation (Perkin Elmer), resulting in a final screening concentration of 2 μM. Cells were incubated at 37° C. for 1 hour and then T3 (Sigma; 40 ng/ml) was added to all wells except negative controls, to which FGF (20 ng/ml) was added instead. Negative controls and T3-alone were included in each assay plate. After incubation at 37° C. for 72 h, cells were fixed, washed and stained similar to 96-well OPC assay protocol, although all the washing steps were performed using a Biotek EL406 Microplate Washer Dispenser (Biotek) equipped with a 96-well aspiration manifold. Cells were stained with DAPI (Sigma; 1 μg/ml) and MBP antibody (Abcam, ab7349; 1:100). Plates were imaged on the Operetta High Content Imaging and Analysis system (PerkinElmer) and a set of 4 fields captured from each well resulting in an average of 700 cells being scored per well. Analysis was performed as in High-Content Imaging and Analysis, above. All plates for the primary screen were processed and analyzed simultaneously to minimize variability. Molecules causing more than 20% reduction in nuclear count relative to DMSO control wells were removed from consideration, and hits were called on the basis of largest fold-increase in percentage of MBP+ oligodendrocytes relative to DMSO controls within the same plate.

OPCs = assay: GC/MS-based sterol profiling in OPCs; assay type: cell-based, mouse; settings: for sterol levels / sterol intermediate accumulation in OPCs: 24 h treatment (siRNA 96 h)
rat CYP51 = target: T1, rat CYP51 (Rattus norvegicus, UniProt Q64654); assay: CYP51 enzymatic assay (LC/MS quantitation of FF-MAS); assay type: biochemical
T1 construct: purchased Cypex, Inc
T1 sequence (Q64654 1-503): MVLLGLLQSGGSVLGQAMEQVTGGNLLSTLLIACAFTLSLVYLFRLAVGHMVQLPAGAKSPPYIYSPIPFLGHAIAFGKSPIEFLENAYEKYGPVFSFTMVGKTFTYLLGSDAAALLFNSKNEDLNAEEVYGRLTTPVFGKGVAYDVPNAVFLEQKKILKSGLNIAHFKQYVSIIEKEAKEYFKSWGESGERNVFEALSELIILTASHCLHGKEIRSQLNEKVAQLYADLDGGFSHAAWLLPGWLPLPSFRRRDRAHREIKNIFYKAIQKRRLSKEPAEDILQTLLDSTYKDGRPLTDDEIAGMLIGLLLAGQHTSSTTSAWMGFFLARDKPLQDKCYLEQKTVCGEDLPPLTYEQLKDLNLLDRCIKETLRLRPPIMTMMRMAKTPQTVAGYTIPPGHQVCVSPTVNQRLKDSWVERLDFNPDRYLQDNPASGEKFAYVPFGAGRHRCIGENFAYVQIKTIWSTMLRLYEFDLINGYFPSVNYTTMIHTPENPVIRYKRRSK
Experimental: Finally, 15 μl of each reaction/isopropanol mixture was injected onto a SCIEX Triple Quad 6500 LC-MS/MS system using an APCI ion source in positive ion mode with a Shimadzu UFLC-20AD HPLC and a Phenomenex

[3] = 2 μM, relative to DMSO controls of the same plate
[4] = 2 μM, hydrochloride monohydrate

| Compound | cell viability (% relative to DMS0) (EpiSC-derived OPCs [2]; 2 μM) [%] | % 0ligos (EpiSC-derived OPCs [2]; 2 μM) [%] | fold induction at 2 µM (EpiSC-derived OPCs [2]; [3]) | further results |
| --- | --- | --- | --- | --- |
| CC(C)CCC[C@@H](C)[C@H]1CC=C2C3=C(CC[C@@]21C)[C@@]1(C)CCC(O)CC1CC3 (stereo partly drawn) [14-dehydrozymostenol, cholesta-8,14-dien-3-ol] |  |  |  | formation of MBP+ oligodendrocytes from OPCs (EpiSC-derived OPCs [1]): enhanced the formation of MBP+ oligodendrocytes |
| Varenicline tartrate | 144.02 | 22.86 |  | fold-change in % MBP + oligodendrocytes (EpiSC-derived OPCs [2]; [3]): 4.81 |
| Clc1ccc(C(Cn2ccnc2)OCc2csc3c(Cl)cccc23)c(Cl)c1 (stereo not drawn) [Sertaconazole nitrate] | 134.49 | 39.38 | 5.23 |  |
| c1ccc(-c2ccc(C(c3ccccc3)n3ccnc3)cc2)cc1 (stereo not drawn) [Bifonazole] | 123.69 | 40.98 | 4.59 |  |
| Cc1cc(NC(=O)Nc2ccc(N(C)C)cc2)c2cc(F)cc(F)c2n1 [SB408124] | 106.19 | 39.63 |  | fold-change in % MBP + oligodendrocytes (EpiSC-derived OPCs [2]; [3]): 4.44 |
| C[C@]12CC[C@@H]3c4ccc(O)cc4C[C@@H](CCCCCCCCC[S+]([O-])CCCC(F)(F)C(F)(F)F)[C@H]3[C@@H]1CC[C@@H]2O (stereo partly drawn) [Fulvestrant] | 139.42 | 18.21 | 3.83 | enzyme inhibited in OPCs as indicated by sterol profile (OPCs; 24 h): targeted CYP51 |
| (±)-Vesamicol | 112.02 | 34.23 |  | fold-change in % MBP + oligodendrocytes (EpiSC-derived OPCs [2]; [3]): 3.87 |
| Clc1ccc(C(Cn2ccnc2)OCc2ccc(Sc3ccccc3)cc2)c(Cl)c1 (stereo not drawn) [Fenticonazole Nitrate] | 103.63 | 35.66 | 4 |  |
| CC(C)CCC[C@@H](C)[C@H]1CC[C@H]2[C@@H]3CC=C4C[C@@H](O)CC[C@]4(C)[C@H]3CC[C@]12C [cholesterol, Cholesterol] |  |  |  | formation of MBP+ oligodendrocytes from OPCs (EpiSC-derived OPCs [1]): ineffective |
| CC(=O)N1CCN(c2ccc(OC[C@@H]3CO[C@](Cn4ccnc4)(c4ccc(Cl)cc4Cl)O3)cc2)CC1 (stereo in doubt) [R-trans-Ketoconazole] |  |  |  | inhibition of mammalian CYP51 in vitro (rat CYP51): strikingly less effective at inhibiting mammalian CYP51 |
| lsoconazole nitrate |  | 53.25 |  | fold-change in % MBP + oligodendrocytes (EpiSC-derived OPCs [2]; [3]): 6.70 |
| Cc1cc(Nc2cc(CN3CCOCC3)c3nc(C)c(Cc4ccc(Cl)cc4F)n3n2)n[nH]1 [LY2784544] | 87.93 | 28.75 | 3.62 |  |
| CN1CCC[C@@H]1CCO[C@](C)(c1ccccc1)c1ccc(Cl)cc1 [Clemastine fumarate] |  | 20.49 |  | sterol levels / sterol intermediate accumulation in OPCs (OPCs): induced accumulation of zymostenol and zymosterol and decreased basal sterol levels; oligodendrocyte formation in combination with ketoconazole (EpiSC-derived OPCs [1]; ketoconazole 2.5 μM (maximally effective dose)): did not enhance differentiation above levels seen for ketoconazole alone |
| N[C@@H](Cc1cc(I)c(Oc2ccc(O)c(I)c2)c(I)c1)C(=O)O [liothyronine, Liothyronine] |  |  |  | sterol levels / sterol intermediate accumulation in OPCs (OPCs): minimal effects on sterol levels |
| Cl.O[Si](CCCN1CCCCC1)(c1ccc(F)cc1)C1CCCCC1 (stereo not drawn) [Hexahydro-sila-difenidol hydrochloride, p-fluoro analog] |  | 26.76 |  | fold-change in % MBP + oligodendrocytes (EpiSC-derived OPCs [2]; [3]): 3.49 |
| CC(C)=CCC[C@@H](C)[C@H]1CC[C@@]2(C)C3=C(CC[C@]12C)[C@@]1(C)CC[C@H](O)C(C)(C)[C@@H]1CC3 [lanosterol, Lanosterol] |  |  |  | formation of MBP+ oligodendrocytes from OPCs (EpiSC-derived OPCs [1]): enhanced formation of MBP+ oligodendrocytes in a dose-responsive fashion |
| O=C1Cc2cc(CCN3CCN(c4nsc5ccccc45)CC3)c(Cl)cc2N1 [Ziprasidone HCl] |  |  | 4.68 | % 0ligos (EpiSC-derived OPCs [2]; 2 μM, HCl): 34.10%; cell viability (% relative to DMS0) (EpiSC-derived OPCs [2]; 2 μM, HCl): 147.64% |

| Compound | cell viability (% relative to DMS0) (EpiSC-derived OPCs [2]; 2 μM) [%] | % 0ligos (EpiSC-derived OPCs [2]; 2 μM) [%] | fold induction at 2 µM (EpiSC-derived OPCs [2]; [3]) | further results |
| --- | --- | --- | --- | --- |
| N=C(N)c1ccc(OCCCCCOc2ccc(C(=N)N)cc2)cc1 [Pentamidine isethionate] | 108.75 | 41.29 | 4.42 |  |
| CC(C)CCC[C@@H](C)[C@H]1CC[C@H]2C3=C(CC[C@]12C)[C@@]1(C)CC[C@H](O)C[C@@H]1CC3 [zymostenol, Zymostenol] |  |  |  | formation of MBP+ oligodendrocytes from OPCs (EpiSC-derived OPCs [1]): enhanced the formation of MBP+ oligodendrocytes |
| Clc1ccc(CSC(Cn2ccnc2)c2ccc(Cl)cc2Cl)cc1 (stereo not drawn) [Sulconazole Nitrate] | 104.84 | 37.57 | 4.44 |  |
| CCCCOc1ccc(OCCCN2CCOCC2)cc1 [Pramoxine HCl] | 113.08 | 32.98 | 3.89 |  |
| FC(F)(F)c1ccc(/C=C/c2nc(COc3ccc(CCCCn4ccnn4)cc3)co2)cc1 [Mubritinib (TAK 165), Mubritinib] | 142.71 | 31.45 | 3.95 |  |
| Clc1ccc(CCC(Cn2ccnc2)Sc2c(Cl)cccc2Cl)cc1 (stereo not drawn) [Butoconazole nitrate] | 122.03 | 46.85 | 5.25 |  |
| O=C(C1CCCCC1)N1CC(=O)N2CCc3ccccc3C2C1 (stereo not drawn) [Praziquantel] | 109.81 | 33.24 | 3.72 |  |
| OC(Cn1cncn1)(Cn1cncn1)c1ccc(F)cc1F [fluconazole, Fluconazole] |  |  |  | inhibition of mammalian CYP51 in vitro (rat CYP51): did not inhibit mammalian CYP51 in vitro |
| C=C(c1ccc(C(=O)O)cc1)c1cc2c(cc1C)C(C)(C)CCC2(C)C [bexarotene, Bexarotene] |  |  |  | sterol levels / sterol intermediate accumulation in OPCs (OPCs): minimal effects on sterol levels |
| O=C1Cc2cc(CCN3CCN(c4nsc5ccccc45)CC3)c(Cl)cc2N1 [Ziprasidone hydrochloride monohydrate] |  |  |  | % 0ligos (EpiSC-derived OPCs [2]; [4]): 32.78%; fold-change in % MBP + oligodendrocytes (EpiSC-derived OPCs [2]; 2 μM, relative to DMSO controls of the same plate, hydrochloride monohydrate): 3.71; cell viability (% relative to DMS0) (EpiSC-derived OPCs [2]; [4]): 116.11% |
| CCc1nc(N)nc(N)c1-c1ccc(Cl)cc1 [Pyrimethamine] | 91.11 | 43.87 | 4.92 |  |
| Cl.Clc1ccc(N2CCN(Cc3c[nH]c4ncccc34)CC2)cc1 [L-745,870 hydrochloride] |  | 32.61 |  |  |
| Cc1nnc(C(=O)NC(C)(C)c2nc(C(=O)NCc3ccc(F)cc3)c(O)c(=O)n2C)o1 [Raltegravir (MK-0518), Raltegravir] | 115.85 | 38.02 |  | fold induction at 2 µM (EpiSC-derived OPCs [2]): 4.26 |
| CCN(CC)CCCCCCCCOC(=O)c1cc(OC)c(OC)c(OC)c1.Cl [TMB-8 hydrochloride] | 139.42 | 18.47 |  | fold-change in % MBP + oligodendrocytes (EpiSC-derived OPCs [2]; [3]): 3.89 |
| CC(=O)N1CCN(c2ccc(OC[C@H]3CO[C@@](Cn4ccnc4)(c4ccc(Cl)cc4Cl)O3)cc2)CC1 (stereo in doubt) [S-trans-Ketoconazole] |  |  |  | inhibition of mammalian CYP51 in vitro (rat CYP51): strikingly less effective at inhibiting mammalian CYP51 |
| O=C(c1ccc(OCCN2CCCCC2)cc1)c1c(-c2ccc(O)cc2)sc2cc(O)ccc12 [Raloxifene HCl] |  |  | 4.8 | cell viability (% relative to DMS0) (EpiSC-derived OPCs [2]; 2 μM, HCl): 114.37%; cell viability (% relative to DMS0) (EpiSC-derived OPCs [2]; 2 μM, listed as Raloxifene hydrochloride, HCl): 126.07% |
